Results on five molecules are retold here after ChEMBL document CHEMBL1128785, “Modifications of the MeBmt side chain of cyclosporin A” (Bioorg Med Chem Lett, 1995).

Common to all, as to type: functional
Test [1] can be described thus: Tested in vitro for mixed Lymphocyte reaction; 100 times less active than cyclosporin A.
Test [2] has as its target T1, Interleukin-2 (Mus musculus) (UniProt P04351).
T1 sequence (whole entry): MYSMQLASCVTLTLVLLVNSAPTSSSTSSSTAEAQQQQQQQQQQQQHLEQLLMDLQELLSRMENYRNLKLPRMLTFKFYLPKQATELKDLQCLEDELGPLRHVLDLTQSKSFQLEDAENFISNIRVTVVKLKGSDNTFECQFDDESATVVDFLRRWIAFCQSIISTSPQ
As to the kind of experiment: Tested in vitro for inhibition of Interleukin-2 (IL-2) release; 100 times less active than cyclosporin A.

Test [3] concerns the target T1, Interleukin-2 (Mus musculus). As to the kind of experiment: Tested in vitro for inhibition of Interleukin-2 (IL-2) release; 2-3 times less active than compound 1.
Test [4] in a line: Tested in vitro for mixed Lymphocyte reaction; 2-3 times less active than compound 1.

SMILES strings stand for the structures.

On to `CC[C@@H]1NC(=O)[C@H]([C@@H]2O[C@]3(O)CC[C@@H]3C[C@H]2C)N(C)C(=O)[C@H](C(C)C)N(C)C(=O)[C@H](CC(C)C)N(C)C(=O)[C@H](CC(C)C)N(C)C(=O)[C@@H](C)NC(=O)[C@H](C)NC(=O)[C@H](CC(C)C)N(C)C(=O)[C@H](C(C)C)NC(=O)[C@H](CC(C)C)N(C)C(=O)CN(C)C1=O`, for which the Activity in test [1] and in test [2] was 100 times less active than cyclosporin A each time.

As for `CC[C@@H]1NC(=O)[C@H]([C@@H]2OC(C(C)=O)C[C@H]2C)N(C)C(=O)[C@H](C(C)C)N(C)C(=O)[C@H](CC(C)C)N(C)C(=O)[C@H](CC(C)C)N(C)C(=O)[C@@H](C)NC(=O)[C@H](C)NC(=O)[C@H](CC(C)C)N(C)C(=O)[C@H](C(C)C)NC(=O)[C@H](CC(C)C)N(C)C(=O)CN(C)C1=O` (stereo not given in full), the Activity in test [1] and in test [2] was 100 times less active than cyclosporin A each time.

As to `CC[C@@H]1NC(=O)[C@H]([C@H](O)[C@H](C)C[C@@H]2C[C@H]2C)N(C)C(=O)[C@H](C(C)C)N(C)C(=O)[C@H](CC(C)C)N(C)C(=O)[C@H](CC(C)C)N(C)C(=O)[C@@H](C)NC(=O)[C@H](C)NC(=O)[C@H](CC(C)C)N(C)C(=O)[C@H](C(C)C)NC(=O)[C@H](CC(C)C)N(C)C(=O)CN(C)C1=O`, the Activity in test [3] and in test [4] was 2-3 times less active than compound 1 in each case.

As for `CC[C@@H]1NC(=O)[C@H]([C@H](O[Si](C)(C)C(C)(C)C)[C@H](C)C[C@H]2OC23CC3)N(C)C(=O)[C@H](C(C)C)N(C)C(=O)[C@H](CC(C)C)N(C)C(=O)[C@H](CC(C)C)N(C)C(=O)[C@@H](C)NC(=O)[C@H](C)NC(=O)[C@H](CC(C)C)N(C)C(=O)[C@H](C(C)C)NC(=O)[C@H](CC(C)C)N(C)C(=O)CN(C)C1=O`, the Activity in test [1] and in test [2] was 100 times less active than cyclosporin A in each case.

As for `CC=C=CC[C@@H](C)[C@@H](O)[C@H]1C(=O)N[C@@H](CC)C(=O)N(C)CC(=O)N(C)[C@@H](CC(C)C)C(=O)N[C@@H](C(C)C)C(=O)N(C)[C@@H](CC(C)C)C(=O)N[C@@H](C)C(=O)N[C@H](C)C(=O)N(C)[C@@H](CC(C)C)C(=O)N(C)[C@@H](CC(C)C)C(=O)N(C)[C@@H](C(C)C)C(=O)N1C`, the Activity in test [3] and in test [4] was 2-3 times less active than compound 1 in each case.
